Series [1] is described as follows: Measurement of lipophilicity (Log P), 1-octanol/PBS partition. The series is classed as physicochemical. The settings on record: 1-octanol / PBS pH 7.4, mean ± SD, n = 4. As to the method: Measurement of Lipophilicity (Log P). Approximately 185 kBq of Al[^18F]F-GP2076 or Al[^18F]F-GP2633 in 0.5 ml of phosphate-buffered saline (PBS) (pH 7.4) was mixed with 0.5 ml of 1-octanol. The mixture was vigorously shaken for 1 min, and then centrifuged at 12,000 rpm for 5 min to partition the organic and aqueous layers. Aliquots of 0.2 ml each layer were taken and the radioactivity was determined by gamma counting (GC-1200, USTC Chuangxin Co. Ltd. Zonkia Branch, China). The distribution coefficient P was calculated as the ratio of radioactivity in the organic phase to that in the aqueous phase. The experiment was carried out in quadruplicate.

A short description of series [2]: In vitro stability in PBS and mouse serum. Format: in vitro ADME. The settings on record: PBS at room temperature and mouse serum at 37° C., 2 h incubation, HPLC. On the procedure: In Vitro Stability. The stability of Al[^18F]F-GP2076 or Al[^18F]F-GP2633 was evaluated in PBS and mouse serum. Briefly, 5.55 MBq of Al[^18F]F-GP2076 or Al[^18F]F-GP2633 was incubated with 0.5 ml of PBS at room temperature or mouse serum at 37° C. with gentle shaking. The stability test was carried out at 2 h after the incubation. For the PBS study, an aliquot of the solution was taken, and the radiochemical purity was determined by analytical HPLC. For the mouse serum study, after the addition of TFA, the mixture was passed through a 0.2-μm filter. An aliquot of the soluble fraction was taken, and the radiochemical purity was examined by analytical HPLC.

The nature of series [3]: In vivo metabolic stability in HepG2 tumor-bearing mice. The settings on record: 1 h after intravenous injection. On the procedure:
In Vivo Metabolic Stability. HepG2 tumor-bearing mice (n=3/group) were intravenously injected with 5.55 MBq of Al[^18F]F-GP2076 or Al[^18F]F-GP2633. At 1 h after the injection, the mice were euthanized, and the HepG2 tumor, blood, liver, kidneys, and urine samples were collected. Briefly, the blood sample was immediately centrifuged for 5 min at 12,000 rpm. The HepG2 tumor, liver, and kidneys were homogenized and then centrifuged for 5 min at 12,000 rpm. The supernatant from each sample was passed through an ultrafiltration tube (Millipore, USA) and then centrifuged for 10 min at 12,000 rpm. The urine sample was diluted with 100 μl of PBS. The filtrate from each sample was injected into analytic HPLC. The HPLC eluents were collected with a fraction collector (one fraction/30 sec), and the radioactivity of each fraction was measured by gamma counting.

Series [4] is described as follows: Ex vivo biodistribution in HepG2 tumor bearing nude mice. The settings on record: both sexes, BALB/c nude, mouse, iv, 1.85 MBq, total radioactivity, 1 h post-injection, gamma counting. As to the method:
(§1) All animal experiments were conducted according to the guideline of the Nanfang Hospital Animal Ethics Committee at the Southern Medical University. Male or female BALB/c nude mice (about 4-6 weeks old) were obtained from the Laboratory Animal Center at Southern Medical University. The HepG2 and McA-RH7777 HCC xenografts were established by subcutaneous injection of 1×10^6 tumor cells into the left shoulder of nude mice. The animals were used for in vivo studies when the tumors reached a size of 0.5-1 cm in diameter (4-6 weeks after inoculation).
(§2) Ex vivo biodistribution was evaluated at 60 min after the tail vein injection of 1.85 MBq of Al[^18F]F-GP2076 or Al[^18F]F-GP2633. Mice were euthanized and dissected. Major tissues and organs were collected and weighed wet. The radioactivity in the tissues and organs was measured using a gamma counter. The results were presented as % ID/g. For each animal, the radioactivity of the tissue and organ samples was calibrated with a known aliquot of the injected activity. Mean uptake (% ID/g) for a group of animals was calculated with standard deviations.

Another series relates to HepG2 tumor. The series is described as above. The settings on record: 1 h post-injection, gamma counting. As to the method: as §1, §2
[5] abbreviates: HepG2 tumor, read-out: HepG2 Tumor uptake, ex vivo biodistribution.
The mark [6] stands for this setting: blood, read-out: Blood uptake, ex vivo biodistribution.
Where [7] appears, read: bone, read-out: Bone uptake, ex vivo biodistribution.
Setting [8] is: brain, read-out: Brain uptake, ex vivo biodistribution.
Where [9] appears, read: heart, read-out: Heart uptake, ex vivo biodistribution.
Setting [10] is: kidneys, read-out: Kidneys uptake, ex vivo biodistribution.
Setting [11] is: liver, read-out: Liver uptake, ex vivo biodistribution.
The mark [12] stands for this setting: muscle, read-out: Muscle uptake, ex vivo biodistribution.

Two compounds from patent US20210347709A1, “RADIOFLUORINATED GPC3-BINDING PEPTIDES FOR PET IMAGING OF HEPATOCELLULAR CARCINOMA” (University of Southern California, priority 2020, published 2021) can be followed below.

Like-named read-outs stand apart in the source and are kept apart here. A value given as a limit tells only on which side of the number the result lay.

Broadly, the logP is a log measure of how a compound divides between an organic and an aqueous phase.

For the compound `CC(C)C[C@H](NC(=O)[C@H](CCCNC(=N)N)NC(=S)Nc1ccc(CC2CN(CC(=O)O)CCN(CC(=O)O)CCN2CC(=O)O)cc1)C(=O)N[C@@H](CC(N)=O)C(=O)N[C@H](C(=O)NCC(=O)NCC(=O)N[C@H](C(=O)N[C@@H](Cc1ccc(O)cc1)C(=O)N[C@@H](Cc1ccccc1)C(=O)N[C@@H](CC(C)C)C(=O)N[C@H](C(=O)N[C@H](C(=O)N[C@@H](CCCNC(=N)N)C(=O)N[C@@H](CCC(N)=O)C(=O)O)[C@@H](C)O)[C@@H](C)O)[C@@H](C)O)C(C)C` (single isomer, unassigned) [Al[^18F]F-GP2076], the logP in series [1] was -2.1 ± 0.07. Moreover, the “percentage of intact radiotracer (in vitro stability)” value in series [2] is listed as > 95%. Further, the “percentage of parent F-18 labeled peptide in HepG2 tumor” value in series [3] is recorded as 97.69±2.51%. In addition, the “percentage of parent F-18 labeled peptide in blood” value in series [3] is 96.68±1.55%. For the same compound, the “percentage of parent F-18 labeled peptide in kidneys” value in series [3] was 54.94±2.12%. Besides, the “percentage of parent F-18 labeled peptide in liver” value in series [3] is on record as 96.06±0.54%. Besides, the “percentage of parent F-18 labeled peptide in urine” value in series [3] is listed as 3.31±0.20%. For the same compound, the tissue uptake at 1 h in series [4] (setting [5]) is 1.13 ± 0.02 %ID/g; in series [4] (setting [6]), 0.36 ± 0.17 %ID/g; in series [4] (setting [7]) it was 0.29 ± 0.13 %ID/g; in series [4] (setting [8]) it was 0.1 ± 0.1 %ID/g; in series [4] (setting [9]) it was 0.36 ± 0.15 %ID/g; in series [4] (setting [10]) it was 6.37 ± 1.45 %ID/g. The tissue uptake at 1 h in series [4] (setting [11]) amounted to 2.3 ± 0.56 %ID/g; in series [4] (setting [12]), 0.24 ± 0.07 %ID/g. In addition, the “HepG2 Tumor uptake, ex vivo biodistribution” value with HepG2 tumor was determined as 1.13±0.02 % ID/g. Moreover, in the series on HepG2 tumor, the “Liver uptake, ex vivo biodistribution” value came to 2.30±0.56 % ID/g.
As to `CC(C)C[C@H](NC(=O)[C@H](CCCNC(=N)N)NC(=O)[C@H](CC(N)=O)NC(=O)[C@H](CC(=O)O)NC(=O)[C@H](CCCNC(=N)N)NC(=O)CNC(=O)CNC(=O)CNC(=S)Nc1ccc(CC2CN(CC(=O)O)CCN(CC(=O)O)CCN2CC(=O)O)cc1)C(=O)N[C@@H](CC(N)=O)C(=O)N[C@H](C(=O)NCC(=O)NCC(=O)N[C@H](C(=O)N[C@@H](Cc1ccc(O)cc1)C(=O)N[C@@H](Cc1ccccc1)C(=O)N[C@@H](CC(C)C)C(=O)N[C@H](C(=O)N[C@H](C(=O)N[C@@H](CCCNC(=N)N)C(=O)N[C@@H](CCC(N)=O)C(=O)O)[C@@H](C)O)[C@@H](C)O)[C@@H](C)O)C(C)C` (single isomer, unassigned) [Al[^18F]F-GP2633], the log partition coefficient (logP) in series [1] was -2.42 ± 0.09. Further, the “percentage of intact radiotracer (in vitro stability)” value in series [2] was > 98%. The “percentage of parent F-18 labeled peptide in HepG2 tumor” value in series [3] was 93.01±2.98%. Also, the “percentage of parent F-18 labeled peptide in blood” value in series [3] was 93.57±1.38%. Further, the “percentage of parent F-18 labeled peptide in kidneys” value in series [3] was found to be 7.70±2.56%. Also, the “percentage of parent F-18 labeled peptide in liver” value in series [3] came to 92.95±2.77%. The “percentage of parent F-18 labeled peptide in urine” value in series [3] is on record as “No parent”. Moreover, the tissue uptake at 1 h was determined as 1.96 ± 0.29 %ID/g in series [4] (setting [5]); 0.45 ± 0.12 %ID/g in series [4] (setting [6]); 0.36 ± 0.08 %ID/g in series [4] (setting [7]); 0.12 ± 0.12 %ID/g in series [4] (setting [8]); 0.39 ± 0.27 %ID/g in series [4] (setting [9]); 37 ± 4.7 %ID/g in series [4] (setting [10]). Also, the tissue uptake at 1 h in series [4] (setting [11]) came to 0.97 ± 0.07 %ID/g; in series [4] (setting [12]) it was 0.31 ± 0.05 %ID/g. For the same compound, the “HepG2 Tumor uptake, ex vivo biodistribution” value in the series with HepG2 tumor was 1.96±0.29 % ID/g. Moreover, the “Liver uptake, ex vivo biodistribution” value in the series with HepG2 tumor stood at 0.97±0.07 % ID/g.
